# pIC50: −log10 of the molar value.
# Legend:
# [1] = molecular target: T1, Xanthine oxidase (from bovine milk, Sigma) (Bos taurus, UniProt P80457); assay: Xanthine oxidase inhibitory activity; assay type: biochemical; details: xanthine oxidase from bovine milk 0.02 units/mL, xanthine 200 μM, 10 minutes at room temperature, absorbance at 290 nm
# T1 construct: Xanthine oxidase (from bovine milk, Sigma); purchased Sigma; host or cells: bovine milk
# Procedure: (1) Preparation of test compounds
# Test compounds were dissolved in DMSO (Wako pure chemical) at 40 mM concentration and then diluted to intended concentrations with phosphate-buffered saline (PBS).
# (2) Method for measurement
# Xanthine oxidase (from bovine milk, Sigma) was prepared with phosphate-buffered saline (PBS) at 0.02 units/mL, and then the solution was added to 96 well plates at 50 μL/well. In addition, test compounds diluted with PBS were added at 50 μL/well. Xanthine (Wako pure chemical) at 200 μM prepared with PBS was added at 100 μL/well, and the mixture was reacted for 10 minutes at room temperature. Absorbance at 290 nm was measured using a microplate reader SpectraMax Plus 384 (Molecular device). The absorbance under a condition without xanthine is 0%, and control without test compounds is 100%. Fifty % inhibitory concentration (IC50) of test compounds was calculated (Table 17). Ex. No. in the table indicates Example number.
# male CD (SD) IGS rats = assay: Serum hypouricemic effect; assay type: in vivo; details: Rattus norvegicus; 1 mg/kg oral gavage, overnight fasted male rats, serum at 2 hours after administration; read-out: percent decrease in uric acid
# Procedure: Test compounds at 1 mg/kg suspended in 0.5% methylcellulose solution were administered by oral gavage administration to overnight fasted male CD (SD) IGS rats (5-week-old, Charls River Japan). At 2 hours after administration, blood was collected under ether anesthesia from abdominal aorta, and serum was separated according to general method. Serum uric acid values were determined by use of uric acid measurement kit (Uric acid C-Test Wako: Wako pure chemical), and percent decrease in uric acid was calculated according to the formula described below. As a result, it was shown that compounds of Examples 2, 7, 10, 22, 23, 25, 37, 49, 50 and 58 have over 60% percent decrease in uric acid.
# Percent decrease in uric acid (%)=(Serum uric acid values in control animals−Serum uric acid values in animals administered test compounds)×100/Serum uric acid values in control animals
# T1 sequence (P80457 whole entry): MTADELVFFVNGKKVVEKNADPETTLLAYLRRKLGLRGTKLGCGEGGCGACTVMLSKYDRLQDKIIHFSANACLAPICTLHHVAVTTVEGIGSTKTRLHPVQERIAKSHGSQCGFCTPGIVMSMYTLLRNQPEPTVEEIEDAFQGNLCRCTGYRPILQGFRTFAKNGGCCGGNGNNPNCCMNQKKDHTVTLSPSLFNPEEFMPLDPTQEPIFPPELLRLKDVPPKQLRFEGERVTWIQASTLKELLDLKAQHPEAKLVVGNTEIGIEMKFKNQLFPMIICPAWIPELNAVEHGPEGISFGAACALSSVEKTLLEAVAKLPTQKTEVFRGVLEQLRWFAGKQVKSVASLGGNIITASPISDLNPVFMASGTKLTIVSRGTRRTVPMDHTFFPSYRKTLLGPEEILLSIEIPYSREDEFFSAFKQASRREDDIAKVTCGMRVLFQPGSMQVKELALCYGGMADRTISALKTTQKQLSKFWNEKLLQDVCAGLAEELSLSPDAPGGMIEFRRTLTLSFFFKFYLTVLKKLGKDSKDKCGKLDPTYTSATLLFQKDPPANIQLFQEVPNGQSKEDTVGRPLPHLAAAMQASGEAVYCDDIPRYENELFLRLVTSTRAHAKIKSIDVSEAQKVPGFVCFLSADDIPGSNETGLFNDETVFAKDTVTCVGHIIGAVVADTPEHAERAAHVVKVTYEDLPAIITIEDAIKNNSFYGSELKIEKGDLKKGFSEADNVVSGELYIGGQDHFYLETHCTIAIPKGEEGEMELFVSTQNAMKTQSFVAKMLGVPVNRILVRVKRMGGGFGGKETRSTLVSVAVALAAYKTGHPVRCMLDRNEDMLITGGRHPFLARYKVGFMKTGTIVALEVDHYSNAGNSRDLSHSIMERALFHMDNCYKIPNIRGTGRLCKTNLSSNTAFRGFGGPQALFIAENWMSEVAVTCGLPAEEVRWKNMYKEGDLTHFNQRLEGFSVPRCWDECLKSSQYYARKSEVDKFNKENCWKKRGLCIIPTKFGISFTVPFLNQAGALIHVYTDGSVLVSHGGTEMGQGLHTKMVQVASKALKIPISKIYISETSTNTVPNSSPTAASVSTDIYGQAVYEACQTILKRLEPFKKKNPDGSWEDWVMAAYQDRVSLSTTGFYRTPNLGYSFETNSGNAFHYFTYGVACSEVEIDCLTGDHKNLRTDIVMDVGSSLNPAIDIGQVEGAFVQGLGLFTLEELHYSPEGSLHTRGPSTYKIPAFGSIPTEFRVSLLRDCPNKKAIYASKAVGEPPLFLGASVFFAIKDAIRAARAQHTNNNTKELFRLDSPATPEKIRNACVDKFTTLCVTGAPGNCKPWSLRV
pIC50 [1],Structure (SMILES),inhibition in vivo at 1 mg/kg (male CD (SD) IGS rats) [%]
8.15,"N#Cc1cc(-c2ccc(C(=O)O)cc2)n2ccccc12 [Example 1, 4-(1-Cyanoindolizine-3-yl) benzoic acid]",
8.40,Cc1ccn2c(-c3ccc(C(=O)O)cc3)cc(C#N)c2c1 [Example 2],> 60
8.22,N#Cc1cc(-c2ccc(C(=O)O)cc2)n2cccc(Cl)c12 [Example 3],
8.15,Cc1cccn2c(-c3ccc(C(=O)O)cc3)cc(C#N)c12 [Example 4],
8.05,Cc1cc(C)c2c(C#N)cc(-c3ccc(C(=O)O)cc3)n2c1 [Example 6],
8.30,Cc1ccn2c(-c3ccc(C(=O)O)cc3)cc(C#N)c2c1F [Example 7],> 60
8.52,N#Cc1cc(-c2ccc(C(=O)O)cc2)n2ccc3c(c12)CCCC3 [Example 9],
8.10,CCc1ccn2c(-c3ccc(C(=O)O)cc3)cc(C#N)c2c1 [Example 10],> 60
8.40,CCc1cccn2c(-c3ccc(C(=O)O)cc3)cc(C#N)c12 [Example 11],
7.96,CCc1ccc2c(C#N)cc(-c3ccc(C(=O)O)cc3)n2c1 [Example 12],
8.05,N#Cc1cc(-c2ccc(C(=O)O)cc2)n2cccc(F)c12 [Example 13],
7.74,N#Cc1cc(-c2ccc(C(=O)O)cc2)n2cc(F)ccc12 [Example 14],
8.00,N#Cc1cc(-c2ccc(C(=O)O)cc2)n2ccc(C(F)(F)F)cc12 [Example 15],
8.40,"N#Cc1cc(-c2ccc(C(=O)O)c(O)c2)n2ccccc12 [Example 17, 4-(1-Cyanoindolizine-3-yl)-2-hydroxybenzoic acid]",
8.52,Cc1cccn2c(-c3ccc(C(=O)O)c(O)c3)cc(C#N)c12 [Example 19],
8.30,Cc1ccc2c(C#N)cc(-c3ccc(C(=O)O)c(O)c3)n2c1 [Example 20],
8.40,Cc1cc(C)c2c(C#N)cc(-c3ccc(C(=O)O)c(O)c3)n2c1 [Example 21],
8.52,Cc1ccn2c(-c3ccc(C(=O)O)c(O)c3)cc(C#N)c2c1F [Example 23],> 60
8.22,CCc1cccn2c(-c3ccc(C(=O)O)c(O)c3)cc(C#N)c12 [Example 24],

pIC50 [1],Structure (SMILES),inhibition in vivo at 1 mg/kg (male CD (SD) IGS rats) [%]
8.30,N#Cc1cc(-c2ccc(C(=O)O)c(O)c2)n2cccc(F)c12 [Example 25],> 60
8.30,N#Cc1cc(-c2ccc(C(=O)O)c(O)c2)n2ccc(C(F)(F)F)cc12 [Example 27],
8.52,N#Cc1cc(-c2ccc(C(=O)O)s2)n2ccccc12 [Example 28],
8.10,"N#Cc1cc(-c2ccc(C(=O)O)c(N)c2)n2ccccc12 [Example 30, 2-Amino-4-(1-cyanoindolizine-3-yl) benzoic acid]",
7.52,N#Cc1cc(-c2ccc(C(=O)O)c(F)c2)n2ccccc12 [Example 33],
8.00,Cc1ccn2c(-c3ccc(C(=O)O)c(F)c3)cc(C#N)c2c1F [Example 34],
8.10,Cc1cc2c(C#N)cc(-c3ccc(C(=O)O)cc3)n2cc1Cl [Example 36],
8.40,Cc1ccn2c(-c3ccc(C(=O)O)cc3)cc(C#N)c2c1Cl [Example 37],> 60
8.30,Cc1ccn2c(-c3ccc(C(=O)O)cc3)cc(C#N)c2c1C [Example 38],
8.10,Cc1c(Cl)ccn2c(-c3ccc(C(=O)O)cc3)cc(C#N)c12 [Example 39],
8.30,COc1cccn2c(-c3ccc(C(=O)O)cc3)cc(C#N)c12 [Example 41],
8.40,CC(C)c1ccn2c(-c3ccc(C(=O)O)cc3)cc(C#N)c2c1 [Example 42],
8.70,CC(C)(C)c1ccn2c(-c3ccc(C(=O)O)cc3)cc(C#N)c2c1 [Example 43],
8.52,CC(C)(O)c1ccn2c(-c3ccc(C(=O)O)cc3)cc(C#N)c2c1 [Example 44],
8.30,COc1ccn2c(-c3ccc(C(=O)O)cc3)cc(C#N)c2c1 [Example 45],
8.10,COc1cc2c(C#N)cc(-c3ccc(C(=O)O)cc3)n2cc1C [Example 46],
8.70,"CC(C)Oc1ccn2c(-c3ccc(C(=O)O)cc3)cc(C#N)c2c1C(F)(F)F [Example 47, 4-(1-Cyano-7-isopropoxy-8-trifluoromethylindolizine-3-yl) benzoic acid]",
8.22,N#Cc1cc(-c2ccc(C(=O)O)c(O)c2)n2cc(F)c(C(F)(F)F)cc12 [Example 48],
8.70,Cc1cc2c(C#N)cc(-c3ccc(C(=O)O)c(O)c3)n2cc1Cl [Example 49],> 60

pIC50 [1],Structure (SMILES),inhibition in vivo at 1 mg/kg (male CD (SD) IGS rats) [%]
8.70,Cc1ccn2c(-c3ccc(C(=O)O)c(O)c3)cc(C#N)c2c1Cl [Example 50],> 60
8.30,Cc1ccn2c(-c3ccc(C(=O)O)c(O)c3)cc(C#N)c2c1C [Example 51],
8.70,Cc1c(Cl)ccn2c(-c3ccc(C(=O)O)c(O)c3)cc(C#N)c12 [Example 52],
8.52,CC(=O)c1ccn2c(-c3ccc(C(=O)O)c(O)c3)cc(C#N)c2c1 [Example 53],
8.52,N#Cc1ccn2c(-c3ccc(C(=O)O)c(O)c3)cc(C#N)c2c1 [Example 54],
8.70,CC(C)(C)c1ccn2c(-c3ccc(C(=O)O)c(O)c3)cc(C#N)c2c1 [Example 56],
8.40,N#Cc1cc(-c2ccc(C(=O)O)c(O)c2)n2ccc(-c3cnco3)cc12 [Example 57],
8.70,COc1ccn2c(-c3ccc(C(=O)O)c(O)c3)cc(C#N)c2c1 [Example 58],> 60
8.00,CN(C)c1ccn2c(-c3ccc(C(=O)O)c(O)c3)cc(C#N)c2c1 [Example 59],
7.82,COc1cc2c(C#N)cc(-c3ccc(C(=O)O)c(O)c3)n2cc1C [Example 60],
7.17,"N#Cc1c(F)c(-c2ccc(C(=O)O)cc2)n2ccccc12 [Example 61, 4-(1-Cyano-2-fluoroindolizine-3-yl) benzoic acid]",
8.40,"N#Cc1c(F)c(-c2ccc(C(=O)O)c(O)c2)n2ccccc12 [Example 62, 4-(1-Cyano-2-fluoroindolizine-3-yl)-2-hydroxybenzoic acid]",
8.10,"N#Cc1cc(-c2ccc(C(=O)O)c(O)c2)n2ccc(CF)cc12 [Example 63, 4-(1-Cyano-7-fluoromethylindolizine-3-yl)-2-hydroxybenzoic acid]",
8.10,N#Cc1cc(-c2ccc(C(=O)O)cc2)n2ccc(Br)cc12 [Example 64],
8.10,N#Cc1cc(-c2cnc(C(=O)O)c(O)c2)n2ccccc12 [Example 65],
8.70,Cc1ccn2c(-c3cnc(C(=O)O)c(O)c3)cc(C#N)c2c1 [Example 66],
8.70,Cc1ccn2c(-c3cnc(C(=O)O)c(O)c3)cc(C#N)c2c1F [Example 67],
7.74,N#Cc1cc(-c2ccc(C(=O)O)nc2)n2ccccc12 [Example 70],
7.70,Cc1nc(-c2cc(C#N)c3ccccn23)sc1C(=O)O [Example 71],
